Legend:
in vitro = conditions: for fold increase in half-life vs Cit-Val: 2 μM; for half-life at 2 μM: plasma
Method: Pooled frozen plasma was thawed in a water bath at 37° C. Plasma was centrifuged at 4000 rpm for 5 min and the clots were removed if any. The pH will be adjusted to 7.4±0.1 if required. 1 mM stock solution was prepared with DMSO. Propantheline (positive control) was prepared by making a 100 μM working solution by diluting 5 μL of the stock solution (10 mM) with 495 μL ultra pure water. 100 μM working solutions of test compounds were made up by diluting 10 μL of the stock solution (1 mM) with 90 μL DMSO. 98 μL of blank plasma was spiked with 2 μL of dosing solution (100 μM) to achieve 2 μM of the final concentration in duplicate and samples were incubated at 37° C. in a water bath. […] An aliquot of supernatant (150 μL) was transferred from each well before submitting for LC-MS/MS analysis.
The % remaining test compound after incubation in plasma was calculated using following equation: Remaining=100×(PAR at appointed incubation time/PAR at T0 time)
where PAR is the peak area ratio of analyte versus internal standard (IS).
The half-life (T½) was calculated from a log linear plot of concentration versus time.

Cathepsin B = Cathepsin B (Homo sapiens, UniProt P07858); experiment: Cathepsin B (CatB) cleavage assay; format: biochemical; conditions: for % Parent remaining after incubation with CatB, T = 1 h / % Parent remaining after incubation with CatB, T = 4 h / % Parent remaining after incubation with CatB, T = 24 h: norfloxacin linker compounds
Method: 15 μL of test compound solution (2 mM in DMSO) was added to the incubation plate in duplicate. 30 μL of Cathepsin B stock solution (16 μM) was pre-activated with 1500 μL activation buffer for 10 min at room temperature. The Cathepsin B solution was diluted in 13.17 mL water, then 735 μL activatived enzyme mixture was added to the incubation plate. The mixture was incubated at 37° C. in a waterbath. […] The samples were mixed and centrifuged at 4000 rpm for 20 min. 50 μL of supernatant was taken into a new plate containing 150 μL ultra-pure water and the samples mixed thoroughly before submitting to LC-MS/MS analysis.

SMILES	fold increase in half-life vs Cit-Val (in vitro; mouse, pH 7.4) [fold]	half-life at 2 μM (in vitro; mouse, pH 7.4) [h]	% Parent remaining after incubation with CatB, T = 1 h (Cathepsin B; 1 h) [%]	% Parent remaining after incubation with CatB, T = 4 h (Cathepsin B; 4 h) [%]	% Parent remaining after incubation with CatB, T = 24 h (Cathepsin B; 24 h) [%]	half-life at 2 μM (in vitro; pH 7.4, Mouse plasma t1/2 (EDTA), BTCs, EDTA anticoagulant) [h]	% Parent remaining after incubation with CatB, 0 h (Cathepsin B; BTCs, 0 h) [%]	% Parent remaining after incubation with CatB, 1 h (Cathepsin B; BTCs, 1 h) [%]	% Parent remaining after incubation with CatB, 2 h (Cathepsin B; BTCs, 2 h) [%]	% Parent remaining after incubation with CatB, 4 h (Cathepsin B; BTCs, 4 h) [%]	% Parent remaining after incubation with CatB, 6 h (Cathepsin B; BTCs, 6 h) [%]	% Parent remaining after incubation with CatB, 24 h (Cathepsin B; BTCs, 24 h) [%]	half-life at 40 μM (Cathepsin B; BTCs, read-out: CatB t1/2 (converted)) [h]
CCn1cc(C(=O)O)c(=O)c2cc(F)c(N3CCN(C(=O)OCc4ccc(NC(=O)[C@H](CN)NC(=O)[C@@H](NC(=O)[C@H](CCC(=O)O)NC(=O)CCCC(=O)N(C)C)C(C)C)cc4)CC3)cc21 [BCY10297]	19.3	15.5	75	15	0								
CCn1cc(C(=O)O)c(=O)c2cc(F)c(N3CCN(C(=O)OCc4ccc(NC(=O)[C@H](CNC(=N)N)NC(=O)[C@@H](NC(=O)CCCC(=O)N(C)C)C(C)C)cc4)CC3)cc21 [BCY10300]	3.4	1.4	72	10	0								
CC[C@H](C)[C@@H]([C@@H](CC(=O)N1CCC[C@H]1[C@H](OC)[C@@H](C)C(=O)N[C@H](C)[C@@H](O)c1ccccc1)OC)N(C)C(=O)[C@@H](NC(=O)[C@H](C(C)C)N(C)C(=O)OCc1ccc(NC(=O)[C@H](CCN)NC(=O)C2(NC(=O)[C@H](CCC(=O)O)NC(=O)Cn3cc(CCC(=O)NCCC(=O)N(C)CC(=O)N(C)CC(=O)N(C)CC(=O)N(C)CC(=O)N(C)CC(=O)N(C)CC(=O)N(C)CC(=O)N(C)CC(=O)N(C)CC(=O)N(C)CC(=O)N[C@@H](C)C(=O)N[C@H]4CN(C)Cc5cc6cc(c5)CN(C)C[C@@H](C(N)=O)NC(=O)[C@H](C(C)(C)C)NC(=O)[C@H](CC(=O)O)NC(=O)[C@H](Cc5ccc(O)cc5)NC(=O)[C@H](Cc5ccccc5)NC(=O)[C@H](CC(=O)O)NC(=O)[C@H](CCC(=O)O)NC(=O)[C@H](CSC6)NC(=O)[C@@H](C)NC(=O)[C@H](Cc5cccc6ccccc56)NC(=O)[C@H](CCC(=O)O)NC(=O)[C@H](CC(N)=O)NC(=O)[C@@H](C)NC4=O)nn3)CCC2)cc1)C(C)C [BCY10988, MMAE-PAB-(Dab-cBu-Glu)-BCY3900]						> 57.8	100	109.88	119	110	105	111	> 57.8
CCn1cc(C(=O)O)c(=O)c2cc(F)c(N3CCN(C(=O)OCc4ccc(NC(=O)[C@H](CN)NC(=O)[C@@H](NC(=O)CCCC(=O)N(C)C)C(C)C)cc4)CC3)cc21 [BCY10298]	6.5	2.6	92	63	6								
CCn1cc(C(=O)O)c(=O)c2cc(F)c(N3CCN(C(=O)OCc4ccc(NC(=O)[C@H](CCN)NC(=O)[C@@H](NC(=O)[C@H](CCC(=O)O)NC(=O)CCCC(=O)N(C)C)C(C)C)cc4)CC3)cc21 [BCY10122]	107.5	39	0	0	0								
CCn1cc(C(=O)O)c(=O)c2cc(F)c(N3CCN(C(=O)OCc4ccc(NC(=O)[C@H](CCCNC(N)=O)NC(=O)[C@@H](NC(=O)[C@H](CCC(=O)O)NC(=O)CCCC(=O)N(C)C)C(C)C)cc4)CC3)cc21 [BCY9696]	25.1	10.8	0	0	0								
